From the kinase profiling compilation of Christmann-Franck et al. (2016)

Experiments:
Assay in all cases: KINOMEscan competition binding
Conditions in all cases: compound 10.0 µM
[1] = biological target: PIP4K2B (human) (UniProt P78356)
[2] = biological target: ZAP70 (human) (UniProt P43403)
[3] = biological target: DCLK2 (human) (UniProt Q8N568)
[4] = biological target: NUAK1 (human) (UniProt O60285)
[5] = biological target: FLT1 (human) (UniProt P17948)
[6] = biological target: ULK3 (human) (UniProt Q6PHR2)
[7] = biological target: RPS6KA3 KD1 (human) (UniProt P51812)
[8] = biological target: CDK7 (human) (UniProt P50613)
[9] = biological target: PRKAA1 (human) (UniProt Q13131)
[10] = biological target: CDK3 (human) (UniProt Q00526)
[11] = biological target: CSNK2A2 (human) (UniProt P19784)
[12] = biological target: ULK1 (human) (UniProt O75385)
[13] = biological target: RIOK3 (human) (UniProt O14730)
[14] = biological target: PIP5K1A (human) (UniProt Q99755)
[15] = biological target: STK36 (human) (UniProt Q9NRP7)
[16] = biological target: ROS1 (human) (UniProt P08922)
[17] = biological target: PAK6 (human) (UniProt Q9NQU5)
[18] = biological target: ABL2 (human) (UniProt P42684)
[19] = biological target: PRKD3 (human) (UniProt O94806)
[20] = biological target: TGFBR1 (human) (UniProt P36897)
[21] = biological target: BMPR2 (human) (UniProt Q13873)
[22] = biological target: MELK (human) (UniProt Q14680)
[23] = biological target: WEE1 (human) (UniProt P30291)
[24] = biological target: AURKB (human) (UniProt Q96GD4)
[25] = biological target: FER (human) (UniProt P16591)
[26] = biological target: CSK (human) (UniProt P41240)
[27] = biological target: ERBB4 (human) (UniProt Q15303)
[28] = biological target: MAP2K1 (human) (UniProt Q02750)
[29] = biological target: MAP3K5 (human) (UniProt Q99683)
[30] = biological target: STK24 (human) (UniProt Q9Y6E0)
[31] = biological target: PTK2 (human) (UniProt Q05397)
[32] = biological target: STK38L (human) (UniProt Q9Y2H1)
[33] = biological target: TNK2 (human) (UniProt Q07912)
[34] = biological target: MINK1 (human) (UniProt Q8N4C8)
[35] = biological target: EPHB4 (human) (UniProt P54760)
[36] = biological target: CSNK2A1 (human) (UniProt P68400)
[37] = biological target: MAP3K10 (human) (UniProt Q02779)
[38] = biological target: RPS6KA4 KD2 (human) (UniProt O75676)
[39] = biological target: CSNK1G2 (human) (UniProt P78368)
[40] = biological target: EPHA6 (human) (UniProt Q9UF33)

PAK6 (human), sequence (Q9NQU5 whole entry, looked up): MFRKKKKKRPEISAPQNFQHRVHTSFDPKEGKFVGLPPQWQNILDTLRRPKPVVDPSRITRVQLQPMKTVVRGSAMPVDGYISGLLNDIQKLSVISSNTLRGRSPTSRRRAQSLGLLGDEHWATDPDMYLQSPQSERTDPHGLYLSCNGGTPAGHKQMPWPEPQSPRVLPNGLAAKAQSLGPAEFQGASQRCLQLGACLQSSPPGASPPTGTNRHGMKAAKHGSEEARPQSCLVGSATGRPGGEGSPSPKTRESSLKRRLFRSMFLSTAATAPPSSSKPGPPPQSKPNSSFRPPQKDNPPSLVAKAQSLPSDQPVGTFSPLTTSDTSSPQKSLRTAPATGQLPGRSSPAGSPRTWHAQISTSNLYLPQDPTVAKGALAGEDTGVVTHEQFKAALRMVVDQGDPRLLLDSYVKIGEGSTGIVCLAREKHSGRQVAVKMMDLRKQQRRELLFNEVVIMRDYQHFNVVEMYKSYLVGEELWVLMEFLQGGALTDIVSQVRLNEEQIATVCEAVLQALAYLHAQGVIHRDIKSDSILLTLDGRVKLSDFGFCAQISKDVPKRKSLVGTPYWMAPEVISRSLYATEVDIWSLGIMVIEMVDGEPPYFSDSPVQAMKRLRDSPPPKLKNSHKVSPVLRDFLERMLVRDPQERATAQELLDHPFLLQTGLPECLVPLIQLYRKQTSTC
MAP2K1 (human), sequence (Q02750 whole entry, looked up): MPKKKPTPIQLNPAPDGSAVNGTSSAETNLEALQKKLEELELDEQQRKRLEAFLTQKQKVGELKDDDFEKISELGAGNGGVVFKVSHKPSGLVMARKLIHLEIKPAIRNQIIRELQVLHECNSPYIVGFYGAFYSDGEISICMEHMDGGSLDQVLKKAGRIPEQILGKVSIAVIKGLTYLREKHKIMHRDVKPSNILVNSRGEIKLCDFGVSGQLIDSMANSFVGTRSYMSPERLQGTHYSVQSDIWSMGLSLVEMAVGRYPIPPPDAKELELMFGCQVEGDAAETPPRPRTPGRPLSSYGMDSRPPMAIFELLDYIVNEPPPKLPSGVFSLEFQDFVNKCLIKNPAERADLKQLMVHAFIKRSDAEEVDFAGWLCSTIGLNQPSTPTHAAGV
PRKAA1 (human), sequence (Q13131 whole entry, looked up): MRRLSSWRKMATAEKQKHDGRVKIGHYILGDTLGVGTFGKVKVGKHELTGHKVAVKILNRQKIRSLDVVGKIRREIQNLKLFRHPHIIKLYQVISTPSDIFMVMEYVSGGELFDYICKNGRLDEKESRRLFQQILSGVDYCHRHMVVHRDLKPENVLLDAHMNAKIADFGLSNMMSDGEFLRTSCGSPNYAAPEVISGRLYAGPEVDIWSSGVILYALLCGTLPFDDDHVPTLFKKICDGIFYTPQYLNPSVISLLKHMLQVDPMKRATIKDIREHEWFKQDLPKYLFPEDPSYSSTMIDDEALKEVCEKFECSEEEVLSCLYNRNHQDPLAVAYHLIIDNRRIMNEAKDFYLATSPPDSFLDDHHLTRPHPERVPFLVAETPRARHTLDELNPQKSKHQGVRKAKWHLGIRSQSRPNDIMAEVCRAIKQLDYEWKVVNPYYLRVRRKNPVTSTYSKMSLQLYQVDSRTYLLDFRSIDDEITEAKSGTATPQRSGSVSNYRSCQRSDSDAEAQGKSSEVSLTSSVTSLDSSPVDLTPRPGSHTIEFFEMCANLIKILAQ
TGFBR1 (human), sequence (P36897 whole entry, looked up): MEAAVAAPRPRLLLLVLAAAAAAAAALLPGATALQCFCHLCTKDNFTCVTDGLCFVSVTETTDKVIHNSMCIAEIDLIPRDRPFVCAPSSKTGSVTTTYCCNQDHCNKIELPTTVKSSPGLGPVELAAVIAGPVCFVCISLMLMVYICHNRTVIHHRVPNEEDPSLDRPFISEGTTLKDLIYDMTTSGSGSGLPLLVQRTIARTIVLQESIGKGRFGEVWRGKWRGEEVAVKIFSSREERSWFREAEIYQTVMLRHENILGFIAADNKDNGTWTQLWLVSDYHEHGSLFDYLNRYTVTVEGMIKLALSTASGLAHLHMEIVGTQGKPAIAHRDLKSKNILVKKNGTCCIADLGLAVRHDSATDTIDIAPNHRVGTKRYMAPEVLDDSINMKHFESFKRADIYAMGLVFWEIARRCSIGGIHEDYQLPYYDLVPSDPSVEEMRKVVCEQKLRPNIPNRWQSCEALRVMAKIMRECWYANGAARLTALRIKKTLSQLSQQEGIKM
AURKB (human), sequence (Q96GD4 whole entry, looked up): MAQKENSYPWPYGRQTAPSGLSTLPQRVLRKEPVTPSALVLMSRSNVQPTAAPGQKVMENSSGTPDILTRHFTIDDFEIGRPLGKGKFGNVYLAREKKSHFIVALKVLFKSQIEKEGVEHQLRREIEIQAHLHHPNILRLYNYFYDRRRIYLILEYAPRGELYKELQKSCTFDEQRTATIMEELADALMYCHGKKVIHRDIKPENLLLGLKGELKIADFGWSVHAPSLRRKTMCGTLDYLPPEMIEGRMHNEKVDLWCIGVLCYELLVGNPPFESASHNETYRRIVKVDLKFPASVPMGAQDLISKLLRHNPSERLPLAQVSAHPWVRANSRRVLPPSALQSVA
STK36 (human), sequence (Q9NRP7 whole entry, looked up): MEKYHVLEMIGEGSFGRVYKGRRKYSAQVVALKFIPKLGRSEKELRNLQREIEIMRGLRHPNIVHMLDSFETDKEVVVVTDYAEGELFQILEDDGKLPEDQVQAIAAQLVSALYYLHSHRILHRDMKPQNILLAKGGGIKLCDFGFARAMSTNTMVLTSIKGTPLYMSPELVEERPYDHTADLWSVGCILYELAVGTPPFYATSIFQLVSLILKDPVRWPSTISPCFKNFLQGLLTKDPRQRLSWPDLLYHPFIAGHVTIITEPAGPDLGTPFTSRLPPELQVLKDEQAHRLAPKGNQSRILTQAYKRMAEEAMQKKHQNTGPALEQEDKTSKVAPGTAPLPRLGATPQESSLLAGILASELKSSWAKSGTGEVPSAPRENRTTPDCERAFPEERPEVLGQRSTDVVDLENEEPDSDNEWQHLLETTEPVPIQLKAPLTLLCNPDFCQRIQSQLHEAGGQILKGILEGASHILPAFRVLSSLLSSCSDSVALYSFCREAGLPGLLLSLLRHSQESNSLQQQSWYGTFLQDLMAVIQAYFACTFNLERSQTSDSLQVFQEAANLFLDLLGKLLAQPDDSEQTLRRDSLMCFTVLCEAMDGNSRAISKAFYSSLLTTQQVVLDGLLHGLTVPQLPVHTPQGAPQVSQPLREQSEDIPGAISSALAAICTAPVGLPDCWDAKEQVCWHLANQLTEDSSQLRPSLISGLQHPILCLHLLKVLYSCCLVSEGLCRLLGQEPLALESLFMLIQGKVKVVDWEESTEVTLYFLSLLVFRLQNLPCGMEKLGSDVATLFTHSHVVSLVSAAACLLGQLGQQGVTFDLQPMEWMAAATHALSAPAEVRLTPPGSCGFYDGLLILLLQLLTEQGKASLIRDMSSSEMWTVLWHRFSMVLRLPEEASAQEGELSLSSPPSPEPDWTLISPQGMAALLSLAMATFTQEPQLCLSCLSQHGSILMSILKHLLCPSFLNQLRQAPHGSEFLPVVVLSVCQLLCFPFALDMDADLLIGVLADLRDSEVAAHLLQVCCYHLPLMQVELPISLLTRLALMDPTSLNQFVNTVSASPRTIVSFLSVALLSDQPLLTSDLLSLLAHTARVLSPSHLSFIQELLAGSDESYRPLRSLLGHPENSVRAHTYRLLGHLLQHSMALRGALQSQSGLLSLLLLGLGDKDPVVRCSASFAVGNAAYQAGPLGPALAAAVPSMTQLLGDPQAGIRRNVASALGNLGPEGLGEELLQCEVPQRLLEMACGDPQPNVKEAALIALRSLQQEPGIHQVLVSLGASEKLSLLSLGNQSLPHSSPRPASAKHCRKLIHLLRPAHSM
TNK2 (human), sequence (Q07912 whole entry, looked up): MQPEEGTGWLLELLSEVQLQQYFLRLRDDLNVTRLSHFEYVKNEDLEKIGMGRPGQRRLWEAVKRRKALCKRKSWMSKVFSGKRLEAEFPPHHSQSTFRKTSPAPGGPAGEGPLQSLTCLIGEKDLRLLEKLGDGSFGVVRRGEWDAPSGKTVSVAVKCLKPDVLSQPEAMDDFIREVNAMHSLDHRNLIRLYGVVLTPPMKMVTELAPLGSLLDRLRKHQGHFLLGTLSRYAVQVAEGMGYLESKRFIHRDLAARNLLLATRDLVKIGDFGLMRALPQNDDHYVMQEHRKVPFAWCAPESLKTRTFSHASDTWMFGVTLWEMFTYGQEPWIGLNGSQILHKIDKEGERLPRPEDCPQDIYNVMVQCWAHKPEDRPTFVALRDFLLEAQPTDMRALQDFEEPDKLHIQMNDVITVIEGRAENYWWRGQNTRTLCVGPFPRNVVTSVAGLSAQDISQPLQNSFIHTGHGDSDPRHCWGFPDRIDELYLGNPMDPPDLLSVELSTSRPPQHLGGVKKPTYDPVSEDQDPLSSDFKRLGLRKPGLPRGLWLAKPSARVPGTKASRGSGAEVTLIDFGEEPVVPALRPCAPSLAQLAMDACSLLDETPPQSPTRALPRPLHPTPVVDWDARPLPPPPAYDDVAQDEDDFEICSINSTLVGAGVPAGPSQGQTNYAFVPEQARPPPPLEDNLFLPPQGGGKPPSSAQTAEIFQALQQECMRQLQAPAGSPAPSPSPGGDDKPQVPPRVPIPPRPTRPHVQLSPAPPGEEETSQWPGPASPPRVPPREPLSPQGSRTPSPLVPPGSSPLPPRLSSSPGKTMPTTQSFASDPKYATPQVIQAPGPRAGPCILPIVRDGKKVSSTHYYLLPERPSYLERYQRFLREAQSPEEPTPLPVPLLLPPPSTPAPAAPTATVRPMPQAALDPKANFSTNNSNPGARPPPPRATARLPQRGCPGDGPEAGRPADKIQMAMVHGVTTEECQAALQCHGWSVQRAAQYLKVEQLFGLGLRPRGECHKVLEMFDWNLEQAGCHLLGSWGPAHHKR

Structure (SMILES) | kinase still bound, per cent of control [1] | kinase still bound, per cent of control [2] | kinase still bound, per cent of control [3] | kinase still bound, per cent of control [4] | kinase still bound, per cent of control [5] | kinase still bound, per cent of control [6] | kinase still bound, per cent of control [7] | kinase still bound, per cent of control [8] | kinase still bound, per cent of control [9] | kinase still bound, per cent of control [10] | kinase still bound, per cent of control [11] | kinase still bound, per cent of control [12] | kinase still bound, per cent of control [13] | kinase still bound, per cent of control [14] | kinase still bound, per cent of control [15] | kinase still bound, per cent of control [16] | kinase still bound, per cent of control [17] | kinase still bound, per cent of control [18] | kinase still bound, per cent of control [19] | kinase still bound, per cent of control [20] | other results
CCN1CCN(Cc2ccc(Nc3ncc4c(n3)N(C)c3ccccc3C(=O)N4C)cc2C(F)(F)F)CC1 | 31% | 90% | 1.3% | 3% | 100% | 7.4% | 28% | 4% | 2.4% | 100% | 100% | 0% | 38% | 5% | 82% | 11% | 79% | 3% | 8% | 81% | kinase still bound, per cent of control [21]: 91%; kinase still bound, per cent of control [22]: 75%; kinase still bound, per cent of control [23]: 91%; kinase still bound, per cent of control [24]: 0.95%; kinase still bound, per cent of control [25]: 100%; kinase still bound, per cent of control [26]: 93%; kinase still bound, per cent of control [27]: 95%; kinase still bound, per cent of control [28]: 86%; kinase still bound, per cent of control [29]: 100%; kinase still bound, per cent of control [30]: 35%; kinase still bound, per cent of control [31]: 57%; kinase still bound, per cent of control [32]: 90%; kinase still bound, per cent of control [33]: 24%; kinase still bound, per cent of control [34]: 68%; kinase still bound, per cent of control [35]: 93%; kinase still bound, per cent of control [36]: 79%; kinase still bound, per cent of control [37]: 100%; kinase still bound, per cent of control [38]: 100%; kinase still bound, per cent of control [39]: 8.9%; kinase still bound, per cent of control [40]: 90%
Cc1ccc(C(=O)Nc2cccc(C(F)(F)F)c2)cc1Nc1cncc(C(N)=O)c1 | 100% | 100% | 100% | 100% | 33% | 100% | 100% | 100% | 100% | 100% | 100% | 100% | 100% | 100% | 100% | 100% | 100% | 21% | 100% | 100% | kinase still bound, per cent of control [21]: 100%; kinase still bound, per cent of control [22]: 100%; kinase still bound, per cent of control [23]: 100%; kinase still bound, per cent of control [24]: 100%; kinase still bound, per cent of control [25]: 100%; kinase still bound, per cent of control [26]: 100%; kinase still bound, per cent of control [27]: 100%; kinase still bound, per cent of control [28]: 100%; kinase still bound, per cent of control [29]: 100%; kinase still bound, per cent of control [30]: 100%; kinase still bound, per cent of control [31]: 100%; kinase still bound, per cent of control [32]: 100%; kinase still bound, per cent of control [33]: 100%; kinase still bound, per cent of control [34]: 100%; kinase still bound, per cent of control [35]: 6.9%; kinase still bound, per cent of control [36]: 100%; kinase still bound, per cent of control [37]: 100%; kinase still bound, per cent of control [38]: 100%; kinase still bound, per cent of control [39]: 100%; kinase still bound, per cent of control [40]: 100%
Cc1ccc(NC(=O)c2cccc(C(C)(C)C#N)c2)cc1Nc1ccc2ncn(C)c(=O)c2c1 | 100% | 100% | 100% | 100% | 4.4% | 97% | 90% | 100% | 73% | 100% | 100% | 94% | 100% | 100% | 88% | 100% | 84% | 12% | 88% | 100% | kinase still bound, per cent of control [21]: 58%; kinase still bound, per cent of control [22]: 100%; kinase still bound, per cent of control [23]: 100%; kinase still bound, per cent of control [24]: 100%; kinase still bound, per cent of control [25]: 100%; kinase still bound, per cent of control [26]: 1.2%; kinase still bound, per cent of control [27]: 34%; kinase still bound, per cent of control [28]: 100%; kinase still bound, per cent of control [29]: 100%; kinase still bound, per cent of control [30]: 79%; kinase still bound, per cent of control [31]: 100%; kinase still bound, per cent of control [32]: 100%; kinase still bound, per cent of control [33]: 100%; kinase still bound, per cent of control [34]: 7.2%; kinase still bound, per cent of control [35]: 0.25%; kinase still bound, per cent of control [36]: 88%; kinase still bound, per cent of control [37]: 100%; kinase still bound, per cent of control [38]: 94%; kinase still bound, per cent of control [39]: 100%; kinase still bound, per cent of control [40]: 0%
